The target of assay [1] is T1, Tyrosine-protein kinase TXK (Homo sapiens) (UniProt P42681).
T1 sequence (whole entry): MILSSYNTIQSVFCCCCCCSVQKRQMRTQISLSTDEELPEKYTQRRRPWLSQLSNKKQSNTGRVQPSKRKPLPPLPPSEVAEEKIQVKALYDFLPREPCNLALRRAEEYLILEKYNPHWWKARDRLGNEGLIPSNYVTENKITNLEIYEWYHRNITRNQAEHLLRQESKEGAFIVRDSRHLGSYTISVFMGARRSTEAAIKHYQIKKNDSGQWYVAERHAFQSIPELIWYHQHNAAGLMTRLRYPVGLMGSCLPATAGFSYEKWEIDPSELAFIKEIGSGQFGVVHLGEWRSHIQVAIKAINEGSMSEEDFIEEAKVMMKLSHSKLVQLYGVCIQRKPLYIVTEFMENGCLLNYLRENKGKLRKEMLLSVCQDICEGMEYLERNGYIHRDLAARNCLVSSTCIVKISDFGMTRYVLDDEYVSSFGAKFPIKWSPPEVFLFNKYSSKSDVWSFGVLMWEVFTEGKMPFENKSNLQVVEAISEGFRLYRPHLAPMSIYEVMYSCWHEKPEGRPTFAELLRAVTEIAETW
Nature of the assay: Inhibition of human TXK using EAIYAAPFAKKK as substrate at 1 uM in presence of 32P-ATP by Hotspot assay relative to control; values are per cent of control.

Assay [2] deals with T2, Inhibitor of nuclear factor kappa-B kinase subunit epsilon (Homo sapiens) (UniProt Q14164).
T2 sequence (whole entry): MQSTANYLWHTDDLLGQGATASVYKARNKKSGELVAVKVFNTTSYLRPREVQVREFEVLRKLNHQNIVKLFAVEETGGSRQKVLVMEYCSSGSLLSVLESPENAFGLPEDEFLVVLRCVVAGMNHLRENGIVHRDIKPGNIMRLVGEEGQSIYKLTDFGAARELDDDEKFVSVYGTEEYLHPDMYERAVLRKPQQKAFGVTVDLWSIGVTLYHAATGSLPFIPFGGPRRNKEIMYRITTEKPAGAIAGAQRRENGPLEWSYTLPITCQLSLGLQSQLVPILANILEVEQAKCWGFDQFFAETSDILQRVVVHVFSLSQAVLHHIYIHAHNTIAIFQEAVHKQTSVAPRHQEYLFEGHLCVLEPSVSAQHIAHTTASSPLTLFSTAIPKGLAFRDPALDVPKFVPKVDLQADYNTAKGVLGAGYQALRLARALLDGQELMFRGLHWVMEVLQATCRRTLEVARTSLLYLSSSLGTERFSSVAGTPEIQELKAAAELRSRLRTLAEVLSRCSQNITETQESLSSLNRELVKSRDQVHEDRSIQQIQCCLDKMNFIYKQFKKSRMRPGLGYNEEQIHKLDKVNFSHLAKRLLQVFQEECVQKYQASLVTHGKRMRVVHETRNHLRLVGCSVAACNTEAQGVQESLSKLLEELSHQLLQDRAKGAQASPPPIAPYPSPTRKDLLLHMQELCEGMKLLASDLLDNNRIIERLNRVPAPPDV
Kind of assay: Inhibition of human IKKe/IKBKE using casein as substrate at 1 uM in presence of 32P-ATP by Hotspot assay relative to control; values are per cent of control.

Assay [3] concerns the target Tyrosine-protein kinase receptor UFO (Homo sapiens) (UniProt P30530). Nature of the assay: Inhibition of human AXL using poly[Glu:Tyr] (4:1) as substrate at 1 uM in presence of 32P-ATP by Hotspot assay relative to control; values are per cent of control.
Another assay concerns HT-29. Nature of the assay: Inhibition of TNF-alpha induced necroptosis in human HT-29 cells assessed as increase in cell viability incubated for 24 hrs in presence of zVAD and SMAC007 by Cell Titer-Glo luminescent cell viability assay. The format is functional, cell-based. The following applies: dose 0.01-3 µM.
The target in assay [4] is Proto-oncogene tyrosine-protein kinase receptor Ret (Homo sapiens) (UniProt P07949). Nature of the assay: Inhibition of human RET using RRRRRRRRRRRVYSTDYYRLFNPS as substrate at 1 uM in presence of 32P-ATP by Hotspot assay relative to control.
Chain of Proto-oncogene tyrosine-protein kinase receptor Ret (Homo sapiens) (P07949 whole entry): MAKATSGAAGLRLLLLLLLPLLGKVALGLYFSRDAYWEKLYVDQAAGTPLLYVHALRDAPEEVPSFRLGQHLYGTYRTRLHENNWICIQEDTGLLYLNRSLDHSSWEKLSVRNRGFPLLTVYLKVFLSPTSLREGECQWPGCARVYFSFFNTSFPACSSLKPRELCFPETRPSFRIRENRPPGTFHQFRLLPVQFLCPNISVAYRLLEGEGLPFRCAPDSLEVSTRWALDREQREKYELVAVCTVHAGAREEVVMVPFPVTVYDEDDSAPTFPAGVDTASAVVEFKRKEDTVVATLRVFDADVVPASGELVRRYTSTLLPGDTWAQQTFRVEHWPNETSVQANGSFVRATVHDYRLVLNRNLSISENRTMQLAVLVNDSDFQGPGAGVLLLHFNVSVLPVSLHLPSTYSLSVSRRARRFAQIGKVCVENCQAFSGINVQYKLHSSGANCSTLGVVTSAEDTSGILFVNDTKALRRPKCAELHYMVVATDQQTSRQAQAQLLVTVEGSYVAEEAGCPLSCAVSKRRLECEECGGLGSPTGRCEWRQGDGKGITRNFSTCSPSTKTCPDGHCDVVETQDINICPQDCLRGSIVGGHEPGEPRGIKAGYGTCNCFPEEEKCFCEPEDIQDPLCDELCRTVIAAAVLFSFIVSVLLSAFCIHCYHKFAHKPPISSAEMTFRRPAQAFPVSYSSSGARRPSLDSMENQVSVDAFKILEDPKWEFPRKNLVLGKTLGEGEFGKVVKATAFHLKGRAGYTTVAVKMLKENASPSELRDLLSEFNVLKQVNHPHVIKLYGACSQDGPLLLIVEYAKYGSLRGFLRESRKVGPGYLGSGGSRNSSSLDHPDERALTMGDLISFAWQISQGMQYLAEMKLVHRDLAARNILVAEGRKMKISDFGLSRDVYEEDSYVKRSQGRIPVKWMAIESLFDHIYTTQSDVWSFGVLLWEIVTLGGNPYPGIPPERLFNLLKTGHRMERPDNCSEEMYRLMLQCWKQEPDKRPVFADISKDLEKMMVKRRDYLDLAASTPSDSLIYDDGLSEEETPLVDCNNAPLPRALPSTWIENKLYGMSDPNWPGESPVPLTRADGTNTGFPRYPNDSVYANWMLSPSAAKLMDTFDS
In assay [5] the target is Tyrosine-protein kinase Lck (Homo sapiens) (UniProt P06239). Kind of assay: Inhibition of human LCK using poly[Glu:Tyr] (4:1) as substrate at 1 uM in presence of 32P-ATP by Hotspot assay relative to control; values are per cent of control.
Chain of Tyrosine-protein kinase Lck (Homo sapiens) (P06239 2-509 limits assumed): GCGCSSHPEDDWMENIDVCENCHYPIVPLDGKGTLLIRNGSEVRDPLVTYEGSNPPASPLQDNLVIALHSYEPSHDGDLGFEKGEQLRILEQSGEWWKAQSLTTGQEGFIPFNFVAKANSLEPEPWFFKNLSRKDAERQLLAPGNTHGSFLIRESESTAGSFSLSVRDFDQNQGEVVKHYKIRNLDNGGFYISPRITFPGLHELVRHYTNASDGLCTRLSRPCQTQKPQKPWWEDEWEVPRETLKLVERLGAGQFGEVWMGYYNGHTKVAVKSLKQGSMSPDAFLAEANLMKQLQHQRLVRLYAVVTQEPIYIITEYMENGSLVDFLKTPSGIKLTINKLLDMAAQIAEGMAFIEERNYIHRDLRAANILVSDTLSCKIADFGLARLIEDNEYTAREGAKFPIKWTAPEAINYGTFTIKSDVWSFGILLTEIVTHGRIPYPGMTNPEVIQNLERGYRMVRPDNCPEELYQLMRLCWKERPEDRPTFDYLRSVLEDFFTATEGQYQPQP
Assay [6] deals with Serine/threonine-protein kinase PLK3 (Homo sapiens) (UniProt Q9H4B4). Kind of assay: Residual activity of human PLK3 using casein as substrate at 1 uM in presence of 32P-ATP by Hotspot assay relative to control.
Chain of Serine/threonine-protein kinase PLK3 (Homo sapiens) (Q9H4B4 whole entry, looked up): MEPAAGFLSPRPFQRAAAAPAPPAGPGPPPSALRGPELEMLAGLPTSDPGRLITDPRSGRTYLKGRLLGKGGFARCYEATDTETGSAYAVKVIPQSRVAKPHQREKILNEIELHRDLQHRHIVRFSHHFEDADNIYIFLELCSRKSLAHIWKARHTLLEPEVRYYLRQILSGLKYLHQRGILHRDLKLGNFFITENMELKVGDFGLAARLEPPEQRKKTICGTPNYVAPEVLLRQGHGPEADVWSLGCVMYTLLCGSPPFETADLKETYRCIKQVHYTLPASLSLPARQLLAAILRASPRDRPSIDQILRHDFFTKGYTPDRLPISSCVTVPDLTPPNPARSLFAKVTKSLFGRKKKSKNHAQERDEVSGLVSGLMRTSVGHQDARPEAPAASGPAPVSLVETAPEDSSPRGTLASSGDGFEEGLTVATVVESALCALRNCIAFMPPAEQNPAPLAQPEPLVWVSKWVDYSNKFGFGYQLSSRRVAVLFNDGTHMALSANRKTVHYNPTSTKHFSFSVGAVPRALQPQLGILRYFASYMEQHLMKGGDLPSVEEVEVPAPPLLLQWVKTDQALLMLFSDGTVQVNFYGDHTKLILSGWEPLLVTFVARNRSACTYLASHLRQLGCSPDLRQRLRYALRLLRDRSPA
The target of assay [7] is Ribosomal protein S6 kinase alpha-4 (Homo sapiens) (UniProt O75676). Kind of assay: Inhibition of human MSK2/RPS6KA4 using GRPRTSSFAEG as substrate at 1 uM in presence of 32P-ATP by Hotspot assay relative to control; values are per cent of control.
Chain of Ribosomal protein S6 kinase alpha-4 (Homo sapiens) (O75676 whole entry, looked up): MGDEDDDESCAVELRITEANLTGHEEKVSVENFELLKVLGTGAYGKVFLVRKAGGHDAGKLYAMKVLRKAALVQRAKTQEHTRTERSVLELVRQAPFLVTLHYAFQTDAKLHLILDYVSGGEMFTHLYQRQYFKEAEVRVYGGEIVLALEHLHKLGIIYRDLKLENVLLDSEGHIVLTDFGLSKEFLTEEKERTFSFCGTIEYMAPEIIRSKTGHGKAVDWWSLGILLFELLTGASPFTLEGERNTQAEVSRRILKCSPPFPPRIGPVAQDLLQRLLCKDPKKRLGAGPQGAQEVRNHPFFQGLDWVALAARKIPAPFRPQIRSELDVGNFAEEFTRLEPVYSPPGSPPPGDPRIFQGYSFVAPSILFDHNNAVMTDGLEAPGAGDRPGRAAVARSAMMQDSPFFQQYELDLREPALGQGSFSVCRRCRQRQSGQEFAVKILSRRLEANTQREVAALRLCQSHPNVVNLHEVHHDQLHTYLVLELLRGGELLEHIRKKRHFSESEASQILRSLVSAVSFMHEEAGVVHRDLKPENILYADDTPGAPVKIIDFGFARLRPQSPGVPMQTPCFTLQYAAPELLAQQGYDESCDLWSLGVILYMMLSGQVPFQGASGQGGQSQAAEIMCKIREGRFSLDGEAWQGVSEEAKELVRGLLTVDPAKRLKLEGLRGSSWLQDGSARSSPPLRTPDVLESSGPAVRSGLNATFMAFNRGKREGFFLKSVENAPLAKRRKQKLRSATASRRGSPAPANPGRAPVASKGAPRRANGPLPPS
The target in assay [8] is T3, cGMP-dependent protein kinase 1 (Homo sapiens) (UniProt Q13976).
T3 sequence (whole entry): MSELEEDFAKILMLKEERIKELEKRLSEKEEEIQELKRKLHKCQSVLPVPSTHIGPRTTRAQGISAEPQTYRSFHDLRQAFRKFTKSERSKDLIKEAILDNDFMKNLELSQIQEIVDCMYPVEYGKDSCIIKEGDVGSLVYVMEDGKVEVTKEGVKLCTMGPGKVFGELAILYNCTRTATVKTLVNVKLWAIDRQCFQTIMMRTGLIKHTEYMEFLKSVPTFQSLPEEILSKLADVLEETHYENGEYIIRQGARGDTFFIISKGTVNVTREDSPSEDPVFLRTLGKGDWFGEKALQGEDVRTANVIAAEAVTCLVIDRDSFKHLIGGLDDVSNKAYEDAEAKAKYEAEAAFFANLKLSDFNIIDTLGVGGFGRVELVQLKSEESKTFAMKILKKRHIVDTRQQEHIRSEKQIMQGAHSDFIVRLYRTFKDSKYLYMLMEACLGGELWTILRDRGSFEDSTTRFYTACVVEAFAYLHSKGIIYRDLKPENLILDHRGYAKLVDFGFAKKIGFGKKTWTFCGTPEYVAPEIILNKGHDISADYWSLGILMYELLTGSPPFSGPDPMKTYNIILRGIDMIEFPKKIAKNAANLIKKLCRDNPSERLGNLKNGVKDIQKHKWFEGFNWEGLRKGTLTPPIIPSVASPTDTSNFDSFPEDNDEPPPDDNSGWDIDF
Nature of the assay: Inhibition of human PKG1a using LRRASLG as substrate at 1 uM in presence of 32P-ATP by Hotspot assay relative to control; values are per cent of control.

Chain of Tyrosine-protein kinase receptor UFO (Homo sapiens) (P30530 whole entry): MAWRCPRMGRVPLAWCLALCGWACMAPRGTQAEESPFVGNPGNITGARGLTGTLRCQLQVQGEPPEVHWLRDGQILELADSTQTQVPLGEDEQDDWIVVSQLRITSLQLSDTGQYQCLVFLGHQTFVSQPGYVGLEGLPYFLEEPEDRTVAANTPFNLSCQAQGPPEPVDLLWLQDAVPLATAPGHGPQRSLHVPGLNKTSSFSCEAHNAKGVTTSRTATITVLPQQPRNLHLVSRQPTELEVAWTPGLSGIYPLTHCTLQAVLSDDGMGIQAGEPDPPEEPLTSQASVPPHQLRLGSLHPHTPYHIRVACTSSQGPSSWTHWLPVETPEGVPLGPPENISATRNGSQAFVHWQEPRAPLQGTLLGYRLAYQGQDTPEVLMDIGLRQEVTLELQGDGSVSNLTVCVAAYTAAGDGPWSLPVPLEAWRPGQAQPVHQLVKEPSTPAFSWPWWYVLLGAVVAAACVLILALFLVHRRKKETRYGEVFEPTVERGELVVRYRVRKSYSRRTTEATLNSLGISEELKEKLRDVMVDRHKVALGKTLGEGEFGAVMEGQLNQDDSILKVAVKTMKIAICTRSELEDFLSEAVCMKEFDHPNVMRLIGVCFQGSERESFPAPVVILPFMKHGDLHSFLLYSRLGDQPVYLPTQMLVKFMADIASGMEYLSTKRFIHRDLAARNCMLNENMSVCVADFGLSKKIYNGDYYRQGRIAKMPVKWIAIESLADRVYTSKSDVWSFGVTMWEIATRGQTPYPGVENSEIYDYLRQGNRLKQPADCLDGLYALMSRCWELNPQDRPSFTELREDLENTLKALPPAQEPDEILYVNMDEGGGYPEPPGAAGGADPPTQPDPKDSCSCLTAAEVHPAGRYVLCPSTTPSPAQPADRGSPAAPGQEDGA

As to `CC(C)S(=O)(=O)c1ccc2nccc(Nc3ccc4scnc4c3)c2c1`, the residual activity (commonly the signal under treatment as a percentage of the control signal) in assay [1] was 47.4%; in [2], 97.7%; in assay [3], 101%; in assay [5], 39.4%; in assay [6], 102%; in [7] it was 95.4%. Also, in [8], the residual activity worked out at 90.4%. The inhibition (in general, the drop in the measured response relative to a control, in per cent) in the assay on HT-29 is “Dose-Dependent Effect”; in assay [4], 48.1%.
For `CNC(=O)c1ccc2c(c1)ncn2-c1ccc(CC(=O)OC(C)(C)C)cc1`, the residual activity in assay [1] was determined as 84.2%; in [2], 100%; in assay [3], 92.6%; in assay [5], 13.1%; in assay [6], 106%; in assay [7] it was 96.9%. Further, the residual activity in [8] worked out at 90.1%. Besides, the inhibition result is “Dose-Dependent Effect” with HT-29 and 92.2% in [4].
For the compound `Cc1cc(-c2cnc(N)c3c(-c4ccc5scnc5c4)csc23)n(C)n1`, the residual activity in [1] came to 33.2%; in assay [2] it was 97.9%; in [3], 101%; in assay [5], 17.3%; in [6], 91.7%; in assay [7] it was 99.3%. Also, in assay [8], the residual activity is 69.9%. The inhibition entry with HT-29 was “Dose-Dependent Effect”; in assay [4], 30%.

The values above are taken from ChEMBL document CHEMBL5649166, “RIP3 induces apoptosis independent of pronecrotic kinase activity” (Mol Cell, 2014).
